Laboratory results as given in US6747038B2, “Phenanthridine derivatives and antitumoral medicaments containing phenanthridine” (priority 2000, dated 2004).
Where a name gives a salt, the structure may show the parent alone.

Tested on: panel of 12 human pathogenic tumour cell lines of six types of cancer
Experiment: in vivo-hollow fiber assay of the National Cancer Institute
Conditions: for NCI criteria fulfilled: (a) total points higher than 20, (b) subcutaneous points higher than 8, (c) cell kill characteristics; for Points (sum) / Points (intraperitoneal) / Points (subcutaneous): NCI point system; for Points (sum): 2 points per administration giving at least 50% reduction of tumour cell growth, maximum 96, hollow fibers in nude mice, intraperitoneal plus subcutaneous, 4 doses at 24 h intervals, two concentrations; for Points (intraperitoneal): intraperitoneally implanted hollow fibers in nude mice; for Points (subcutaneous): subcutaneously implanted hollow fibers in nude mice; for Cell killing properties: vital tumour cell mass of at least one cell line less than the starting value after treatment
Procedure: In order to examine the pharmacological properties, these compounds (BP-7, BP-8, BP-D8) as well as 6-Amino-11-(2′,4′-dimethoxyphenyl)benzo[c]-phenanthridine perchlorate (BP-D3) [PCT/WO 97/14683] were examined in an “in vivo-hollow fiber assay” of the National Cancer Institute (NCI), Bethesda, Md., USA.
Compounds were tested against a panel of 12 human pathogenic tumour cell lines of six types of cancer (non-small cell lung cancer, melanoma, breast cancer, ovarian cancer, colon cancer, CNS cancer).
The cell lines were cultivated in polyvinylidenfluorine hollow fibers which are permeable to small molecules and which were implanted into nude mice. Three hollow fibers were implanted every animal intraperitoneally and subcutaneously which means three tumor cell lines could be examined in each animal in two physiological sites.
The animals were treated four times with a dose of the test substance with a time interval of 24 hours. For this purpose, every compound was administered at two concentrations. At the end of the treatment the hollow fibers were regained and the number of the vital tumour cells or rather of the protein biomass was determined photometrically by an MTT-Formazan-Assay in order to determine the inhibition of growth by the phenanthridines. Mice with prepaired tumour cell cultures in hollow fibers which were only treated by solvent served as control.
The evaluation of test results is based on a point system given by NCI.
Each administration of a test substance which leads to a reduction of the tumour cell growth of at least 50% is given a score of two points. The maximum number of points for one compound is therefore 96 points (12 cell lines*2 implantation sites*2 concentrations of the test substance*2 points). In addition for further specification the results on subcutaneously and intraperitoneally implanted hollow fibers are treated separately. There are three criteria given by NCI. A test substance in the “in vivo-hollow fiber assay” has to fulfill at least one criterion in order to be regarded as suitable for further tests:
(a) the total sum of the points from intraperitoneal and subcutaneous application must be higher than 20.
(b) The total sum of the points of the subcutaneous application must be higher than 8.
(c) After the treatment the vital tumour cell mass of at least one cell line must be less than the starting value (cell kill characteristics).

SMILES	NCI criteria fulfilled	Points (sum) [Points]	Points (intraperitoneal) [Points]	Points (subcutaneous) [Points]	Cell killing properties	activity in the in vivo-hollow fiber assay (compared with all tested phenanthridines)
COc1cc(C2Cc3ccccc3-c3nc(N)c4ccccc4c32)cc(OC)c1OC (stereo not drawn) [BP-7, 6-Amino-11,12dihydro-11-(3′,4′,5′-trimethoxyphenyl)benzo[c]-phenanthridine hydrochloride]	(b) and (c)	16	6	10	Yes	
COc1ccc(C2Cc3ccccc3-c3nc(N)c4ccccc4c32)c(OC)c1OC (stereo not drawn) [BP-8, 6-Amino-11,12dihydro-11-(2′,3′,4′-trimethoxyphenyl)benzo[c]-phenanthridine hydrochloride]	(b) and (c)	20	10	10	Yes	
COc1ccc(-c2cc3ccccc3c3nc(N)c4ccccc4c23)c(OC)c1.[O-][Cl+3]([O-])([O-])O [BP-D3, 6-Amino-11-(2′,4′-dimethoxyphenyl)benzo[c]phenanthridine perchlorate, reference compound]	(c) only	10	2	8	Yes	
COc1cc(-c2cc3ccccc3c3nc(N)c4ccccc4c23)cc(OC)c1OC [BP-D7, 6-Amino-11-(3′,4′,5′-trimethoxyphenyl)benzo[c]phenanthridine perchlorate]	a, b and c	28	14	14	Yes	highest activity
